# According to PubChem BioAssay (NCI):
#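 A five-concentration, 48-hour dose response in 96-well plates underlies each endpoint, interpolated linearly between surrounding concentrations. TGI marks complete inhibition of growth.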
# Tests used:
# Assay in all cases: DTP human tumour cell line panel, 48 h
# A549 NSCLC = system: A549 NSCLC
# ACHN renal = system: ACHN renal
# CCRF-CEM leukemia = system: CCRF-CEM leukemia
# COLO 205 colon = system: COLO 205 colon
# HCT-116 colon = system: HCT-116 colon
# HS 578T breast = system: HS 578T breast
# HT29 colon = system: HT29 colon
# IGROV1 ovarian = system: IGROV1 ovarian
# K-562 leukemia = system: K-562 leukemia
# MALME-3M melanoma = system: MALME-3M melanoma
# NCI-H23 lung = system: NCI-H23 lung
# OVCAR-4 ovarian = system: OVCAR-4 ovarian
# PC-3 prostate = system: PC-3 prostate
# RPMI-8226 leukemia = system: RPMI-8226 leukemia
# RXF 393 renal = system: RXF 393 renal
# SF-295 CNS = system: SF-295 CNS
# TK-10 renal = system: TK-10 renal
# UO-31 renal = system: UO-31 renal
Structure (SMILES),TGI (A549 NSCLC),TGI (ACHN renal),TGI (CCRF-CEM leukemia),TGI (COLO 205 colon),TGI (HCT-116 colon),TGI (HS 578T breast),TGI (HT29 colon),TGI (IGROV1 ovarian),TGI (K-562 leukemia),TGI (MALME-3M melanoma),TGI (NCI-H23 lung),TGI (OVCAR-4 ovarian),TGI (PC-3 prostate),TGI (RPMI-8226 leukemia),TGI (RXF 393 renal),TGI (SF-295 CNS),TGI (TK-10 renal),TGI (UO-31 renal)
Cc1ccc(O)c(C2=CC(c3cccc(Cl)c3)SC(N)=N2)c1 (stereo unspecified),62.9 µM,54.4 µM,83.1 µM,39.8 µM,39.7 µM,47.9 µM,46.3 µM,46.5 µM,55.5 µM,62.5 µM,80.1 µM,23.6 µM,73.6 µM,42.6 µM,63.6 µM,36.9 µM,51.7 µM,69.1 µM
CCOC(=O)C1=NN(c2ccc([N+](=O)[O-])cc2)[C@@]2(C)C[C@]3(c4ccccc4)N(c4ccc([N+](=O)[O-])cc4)N=C(C(=O)OCC)N3c3ccccc3N12,> 100 µM,> 100 µM,> 100 µM,> 100 µM,> 100 µM,> 100 µM,> 100 µM,> 100 µM,> 100 µM,> 100 µM,> 100 µM,> 100 µM,> 100 µM,> 100 µM,> 100 µM,> 100 µM,> 100 µM,> 100 µM
O=c1[nH]nc(Cc2c[nH]c3ccccc23)o1,> 100 µM,> 100 µM,> 100 µM,> 100 µM,> 100 µM,> 100 µM,> 100 µM,> 100 µM,> 100 µM,> 100 µM,> 100 µM,> 100 µM,> 100 µM,> 100 µM,> 100 µM,> 100 µM,> 100 µM,> 100 µM
CC(C)=CCC/C(C)=C/CC/C(C)=C/CC/C(C)=C/CC/C(C)=C/CC/C(C)=C/CC/C(C)=C/CC/C(C)=C/CC/C(C)=C/CO,> 100 µM,> 100 µM,> 100 µM,> 100 µM,> 100 µM,> 100 µM,> 100 µM,> 100 µM,> 100 µM,> 100 µM,> 100 µM,> 100 µM,> 100 µM,> 100 µM,> 100 µM,> 100 µM,> 100 µM,> 100 µM
CC1(C)Cc2nc3c(cc2C(=O)C1C=N/C(C#N)=C(\N)C#N)C(=O)C(C=N/C(C#N)=C(\N)C#N)C(C)(C)C3 (stereo unspecified),8.31 µM,5.87 µM,> 100 µM,7.04 µM,2.96 µM,3.32 µM,10.9 µM,3.56 µM,> 100 µM,2.84 µM,7.36 µM,> 100 µM,5.35 µM,> 27.7 µM,3.04 µM,7.56 µM,18 µM,3.51 µM
O=C1C2=C(CC3=C(C2)CS(=O)(=O)C3)C(=O)C2=C1CC1=C(C2)CS(=O)(=O)C1,> 100 µM,> 66.2 µM,34.3 µM,35.7 µM,28.5 µM,> 60.6 µM,41.4 µM,36.5 µM,> 39.1 µM,19.2 µM,48.4 µM,> 33.1 µM,51.6 µM,55.5 µM,49.6 µM,44.9 µM,> 66.9 µM,> 63.4 µM
CC(C)C(=O)Nc1cc(C(F)(F)F)ccc1[N+](=O)[O-],> 100 µM,> 100 µM,> 100 µM,> 100 µM,> 100 µM,> 100 µM,> 100 µM,> 100 µM,> 100 µM,> 100 µM,> 100 µM,> 100 µM,> 100 µM,> 100 µM,> 100 µM,> 100 µM,> 100 µM,> 100 µM
COc1ccccc1C1ON=C(c2ccc([N+](=O)[O-])cc2)N1C12CC3CC(CC(C3)C1)C2 (stereo unspecified),> 100 µM,> 100 µM,> 100 µM,> 100 µM,> 100 µM,> 100 µM,> 100 µM,> 100 µM,> 100 µM,> 100 µM,> 100 µM,> 100 µM,> 100 µM,> 100 µM,60.4 µM,> 100 µM,> 100 µM,> 100 µM
COC(=O)c1cc(C(=CCC[C@H]2CC[C@@]3(C)C(CCC4C3CC[C@@]3(C)C4CC[C@@H]3C(C)CCCC(C)C)C2)c2cc(Cl)c(O)c(C(=O)OC)c2)cc(Cl)c1O (stereo partly specified),> 10 µM,> 10 µM,> 10 µM,> 10 µM,> 10 µM,> 10 µM,> 10 µM,> 10 µM,> 10 µM,> 10 µM,> 10 µM,> 10 µM,> 10 µM,> 10 µM,> 10 µM,> 10 µM,> 10 µM,> 10 µM
CC(C)O/N=C/c1cc(NC(=S)OC(C)C)ccc1Cl,> 90.6 µM,97.6 µM,34.6 µM,> 81.3 µM,> 74.3 µM,> 79.2 µM,66.3 µM,> 94.1 µM,> 53.4 µM,> 100 µM,> 100 µM,> 88.8 µM,> 100 µM,54.2 µM,52.9 µM,62.7 µM,> 100 µM,> 61.2 µM
O=C1C(=O)N(c2cccc(C(F)(F)F)c2)C(=S)N1c1ccccc1,> 100 µM,30.6 µM,> 100 µM,30.5 µM,> 100 µM,> 100 µM,> 100 µM,63.2 µM,> 100 µM,> 100 µM,82.9 µM,> 100 µM,> 100 µM,> 100 µM,> 100 µM,> 100 µM,8.84 µM,86.5 µM
CC(C)[C@H](NC(=O)[C@H](N)Cc1ccc(N(CCCl)CCCl)cc1)C(=O)O,> 100 µM,> 100 µM,> 100 µM,> 100 µM,> 100 µM,> 100 µM,> 100 µM,> 100 µM,> 100 µM,> 100 µM,> 100 µM,> 100 µM,> 100 µM,> 100 µM,> 100 µM,> 100 µM,> 100 µM,> 100 µM
CN(/N=C/c1cccc2cccnc12)c1ccc(Cl)cc1[N+](=O)[O-],> 100 µM,> 100 µM,> 100 µM,> 100 µM,> 100 µM,> 100 µM,> 100 µM,> 100 µM,> 100 µM,> 100 µM,> 100 µM,> 100 µM,> 100 µM,> 100 µM,> 100 µM,> 100 µM,> 100 µM,> 100 µM
COc1ccc(Cc2nnc(Nc3ccc(Br)cc3)[nH]c2=O)cc1OC,> 100 µM,> 100 µM,> 100 µM,> 100 µM,> 100 µM,> 100 µM,> 100 µM,> 100 µM,> 100 µM,> 100 µM,> 100 µM,> 100 µM,> 100 µM,> 100 µM,> 100 µM,> 100 µM,> 100 µM,> 100 µM
CC[C@@]1(C)CCC2c3ccc(O)cc3CC[C@H]2C1C (stereo partly specified),33.6 µM,32.7 µM,33.4 µM,35.1 µM,31.9 µM,35.5 µM,34.1 µM,38.1 µM,23.3 µM,30.5 µM,36.2 µM,35.7 µM,34 µM,39.5 µM,26 µM,34.6 µM,33.3 µM,30.4 µM
CS(=O)(=O)c1ccc(N=C/C=C/Nc2ccc(S(C)(=O)=O)cc2)cc1,> 100 µM,> 100 µM,> 100 µM,> 100 µM,> 100 µM,> 100 µM,> 100 µM,> 100 µM,> 100 µM,> 100 µM,> 100 µM,> 100 µM,> 100 µM,> 100 µM,> 100 µM,> 100 µM,> 100 µM,> 100 µM
COc1cc(-c2cc(=O)c3c(O)c(CC=C(C)C)c(O)cc3o2)ccc1O,> 50 µM,> 50 µM,> 50 µM,> 50 µM,> 50 µM,> 50 µM,> 50 µM,> 50 µM,> 50 µM,> 50 µM,> 50 µM,43.6 µM,> 50 µM,36.3 µM,> 50 µM,31.2 µM,> 50 µM,> 50 µM
